Test results as given in patent US20080287915A1, “Tissue engineering system with scleral lens” (Boston Foundation for Sight, priority 2007, published 2008).
Read-outs that look alike come from different tables or passages of the source.

What was measured:
[1] = tested on: corneal neovascularization; assay: AVASTIN in the scleral lens drug delivery system to treat corneal neovascularization; type: in vivo
Description: This study using AVASTIN® off-label, topically, to treat corneal neovascularization was repeated using the scleral lens drug delivery system. […] This therapeutic effect was achieved without BAK. Instead, the expanded pre-corneal tear film of the scleral lens drug delivery system provided adequate bioavailability of the drug without exposing the cornea to BAK.

[2] = tested on: corneal neovascularization; settings: solution of 1% AVASTIN and 0.01% BAK, one drop, four times per day for at least thirty days, topical; cited from earlier work

## bevacizumab [AVASTIN®]
[1]; one drop of 1% AVASTIN added to expanded pre-corneal tear film of artificial tears in a scleral lens twice per day, without BAK
  therapeutic effect on corneal neovascularization: achieved a therapeutic effect by thirty days with continued benefit over the subsequent sixty days
[1]; scleral lens drug delivery system
  regression of corneal neovascularization (clinical photos, FIG. 5): regression of corneal neovascularization
[2]
  therapeutic effect on corneal neovascularization: Therapeutic effect was reported
